Experimental data published in patent US4613614A, “Prostaglandin I2 ester and fat emulsion containing the same” (The Green Cross Corporation, priority 1983, dated 1986).
Values after ≈ are worked out from the molar mass of the structure shown. Structures can show the parent of a compound that is named as a salt.

Legend:
[1] = test system: platelet agglutination (PRP, plasma rich in platelet); experiment: Change of agglutination-inhibition rate with incubation time, fat emulsions (evaluated indirectly via c-AMP content in the platelets); format: cell-based, Wistar-strain male rats; design: concentration or dose not given beside the values; conditions: compounds in fat emulsion, sodium salt of prostaglandin I2 in aq. solution; for agglutination-inhibition rate, incubation time 5 minutes: incubation 5 minutes; for agglutination-inhibition rate, incubation time 20 minutes: incubation 20 minutes; for agglutination-inhibition rate, incubation time 60 minutes: incubation 60 minutes
Description: (§1) Wistar-strain male rats weighing 150 to 200 g were used in the experiment.
(§2) Blood samples were collected from the heart of the animal without anasthesia by the use of a syringe, in which 3.3% sodium citrate solution had been placed beforehand, in such a way that the volume ratio of the sodium citrate solution to the collected blood was 1:9. The collected blood was then quickly centrifuged at 170 G at room temperature to obtain plasma rich in platelet (hereinafter referred to as PRP).
Separately, by using fat emulsions prepared as in Example 3 and extending the incubation time to 5, 20 and 60 minutes, the changes in agglutination-inhibition rate were observed. Each fat emulsion was prepared to contain 1 mg in terms of prostaglandin I2 of a test compound. It was incubated with PRP for a predetermined time; the platelets were then washed; and the content of c-AMP in the platelets was determined, thus to evaluate indirectly the inhibitory action on platelet agglutination. A physiological saline solution of sodium salt of prostaglandin I2 was used as the control.

[2] = test system: platelet agglutination (PRP, plasma rich in platelet); experiment: Platelet-agglutination inhibition test (rat PRP, adenosine phosphate, aggregometer); format: cell-based, Wistar-strain male rats; conditions: 1 min, concentration in terms of prostaglandin I2 reducing maximum agglutination rate by 50% relative to control, 1 min at 37° C., 1 mM adenosine phosphate, read-out: ED50 (the source's name)
Description: as §1, §2
Then, the compounds 1, 2 and 3 as well as sodium salt of prostaglandin I2 were respectively dissolved in ethanol to a concentration of 1 mg/ml in terms of prostaglandin I2, and thereafter diluted with physiological saline to form solutions of various concentrations.
The platelet-agglutination inhibition test was carried out in the following manner.
The above-mentioned PRP (500 μl) and the above solution 50 μl) containing the drug tested were incubated at 37° C. for one minute in an aggregometer cuvette; then 1 mM adenosine phosphate solution (50 μl) was added to the mixture to obtain an agglutination curve on the instrument and determine the maximum agglutination rate. A mixture of 500 μl of PRP, 50 μl of physiological saline and 50 μl of 1 mM adenosine phosphate solution was used as the control to obtain similarly an agglutination curve.
The concentration (ED50) in terms of prostaglandin I2 of each of the drugs to be tested, at which the solution containing the drug reduces the percentage of the maximum agglutination rate by 50% relative to that of the control taken as 100, was calculated.

[3] = test system: platelet agglutination (PRP, plasma rich in platelet); experiment: Change of agglutination-inhibition rate with incubation time, fat emulsions (evaluated indirectly via c-AMP content in the platelets); format: cell-based, Wistar-strain male rats; design: concentration or dose not given beside the values; conditions: incubation 1 minute; compounds in fat emulsion, sodium salt of prostaglandin I2 in aq. solution
[4] = test system: human platelet agglutination; conditions: cited from earlier work
[5] = cited from earlier work
[6] = test system: other smooth muscles; conditions: cited from earlier work
[7] = test system: artery; conditions: cited from earlier work
[8] = test system: platelet agglutination; conditions: cited from earlier work

CCCCCC(O)C=CC1C(O)CC2OC(=CCCCC(=O)OCC(=O)OCCCC)CC21 (centres unmarked) [Compound 1, butoxycarbonylmethyl prostaglandin I2 ester]
agglutination-inhibition rate, incubation time 5 minutes [1]: 11%
agglutination-inhibition rate, incubation time 20 minutes [1]: 7%
agglutination-inhibition rate, incubation time 60 minutes [1]: 3%
IC50 [2]: 4.6 µg/mL (≈ 9.86 µM)
agglutination-inhibition rate, incubation time 1 minute [3]: 13%

CCCCCC(O)C=CC1C(O)CC2OC(=CCCCC(=O)OCOC(=O)C(C)(C)C)CC21 (centres unmarked) [Compound 2, Pivaloyloxymethyl prostaglandin I2 ester]
agglutination-inhibition rate, incubation time 5 minutes [1]: 78%
agglutination-inhibition rate, incubation time 20 minutes [1]: 51%
agglutination-inhibition rate, incubation time 60 minutes [1]: 27%
IC50 [2]: 0.5 µg/mL (≈ 1.07 µM)
agglutination-inhibition rate, incubation time 1 minute [3]: 93%

CCCCCC(=O)OC(C)OC(=O)CCCC=C1CC2C(CC(O)C2C=CC(O)CCCCC)O1 (centres unmarked) [Compound 3, 1-Hexanoyloxyethyl prostaglandin I2 ester]
agglutination-inhibition rate, incubation time 5 minutes [1]: 71%
agglutination-inhibition rate, incubation time 20 minutes [1]: 65%
agglutination-inhibition rate, incubation time 60 minutes [1]: 48%
IC50 [2]: 0.7 µg/mL (≈ 1.42 µM)
agglutination-inhibition rate, incubation time 1 minute [3]: 78%

CCCCC[C@H](O)/C=C/[C@@H]1[C@H]2C/C(=C/CCCC(=O)O)O[C@H]2C[C@H]1O [Sodium salt of prostaglandin I2, reference compound]
agglutination-inhibition rate, incubation time 5 minutes [1]: 17%
agglutination-inhibition rate, incubation time 20 minutes [1]: 0%
agglutination-inhibition rate, incubation time 60 minutes [1]: 0%
IC50 [2]: 0.4 µg/mL
agglutination-inhibition rate, incubation time 1 minute [3]: 100%

CCCCC[C@H](O)/C=C/[C@@H]1[C@H]2C/C(=C/CCCC(=O)O)O[C@H]2C[C@H]1O [prostaglandin I2, (5Z,13E)-(9α, 11α, 15S)-6,9-epoxy-11,15-dihydroxyprosta-5,13-dienoic acid]
suppression of human platelet agglutination action induced by arachidonic acid [4]: strongly suppresses
water solubility [5]: fairly water-soluble
relaxation of other smooth muscles [6]: does not relax other smooth muscles
artery-relaxative or artery-contractive action [7]: powerful artery-relaxative action

CCCCCC(O)C=CC1OC2CC(O2)C1CC=CCCCC(=O)O (centres unmarked) [thromboxan A2]
platelet-agglutination action [8]: platelet-agglutination action
artery-relaxative or artery-contractive action [7]: artery-contractive action
